Values of other authors, collected in patent US20250195401A1, “COSMETIC COMPOSITION OF LIPOSOMES CONTAINING AN EXTRACT OF HAEMATOCOCCUS PLUVIALIS, TETRAHEXYLDECYL ASCORBATE AND ECTOIN” (IMAGE INTERNATIONAL MANUFACTURING, LLC, priority 2023, published 2025).

Details: 6 h at 190° C.

- stability at high temperatures: very stable
SMILES: CC1=N[C@H](C(=O)O)CCN1 [Ectoine, (4S)-2-methyl-1,4,5,6-tetrahydropyrimidine-4-carboxylic acid]
